pIC50: −log10 of the molar value. Activity calls are given as the source filed them. The rule behind the calls is not given here.
Key:
[1] = target: Apoptosis regulator Bcl-2 (Homo sapiens, UniProt P10415); assay: Inhibition in GST-tagged Bcl2 using [FAM]-IWIAQELRRIGDEFNAYY-NH2 as substrate after 60 mins by fluorescence polarization assay
Bcl-2-like protein 1 = Bcl-2-like protein 1 (Homo sapiens, UniProt Q07817); assay: Inhibition of Bcl-XL using fluoresceinated 18-mer Bim as substrate after 60 mins by FRET analysis
Bcl-2-like protein 1, sequence (Q07817 whole entry): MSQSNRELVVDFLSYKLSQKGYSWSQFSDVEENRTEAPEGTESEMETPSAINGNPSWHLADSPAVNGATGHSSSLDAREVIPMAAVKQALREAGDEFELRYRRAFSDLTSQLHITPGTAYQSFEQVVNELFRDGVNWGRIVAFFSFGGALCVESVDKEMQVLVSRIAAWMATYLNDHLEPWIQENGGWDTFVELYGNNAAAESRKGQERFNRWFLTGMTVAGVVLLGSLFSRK

SUD4 [2] = assay: Induction of apoptosis in human SU-DHL4 cells assessed as cytochrome c release at 10 uM after 24 hrs by Western blot analysis; assay type: functional, cell-based
SUD4 [3] = assay: Induction of apoptosis in human SU-DHL4 cells assessed as BAK oligomerization at 10 uM after 24 hrs by Western blot analysis; assay type: functional, cell-based
[4] = Antiproliferative activity against human SU-DHL4 cells after 72 hrs by Cell-Titer Glo assay in presence of 2% FBS; assay type: functional, cell-based, SUD4; conditions: SU-DHL-4, 72 h
MV4-11 [5] = assay: Antiproliferative activity against human MV411 cells after 72 hrs by Cell-Titer Glo assay in presence of 2% FBS; assay type: functional, cell-based; conditions: MV4-11, 72 h
[6] = Antiproliferative activity against human SU-DHL4 cells after 72 hrs by Cell-Titer Glo assay in presence of 10% FBS; assay type: functional, cell-based, SUD4; conditions: SU-DHL-4, 72 h
MV4-11 [7] = assay: Antiproliferative activity against human MV411 cells after 72 hrs by Cell-Titer Glo assay in presence of 10% FBS; assay type: functional, cell-based; conditions: MV4-11, 72 h
SUD4 [8] = assay: Induction of apoptosis in human SU-DHL4 cells assessed as cytochrome c release at 0.1 to 10 uM after 24 hrs by Western blot analysis; assay type: functional, cell-based
SUD4 [9] = assay: Induction of apoptosis in human SU-DHL4 cells assessed as BAK oligomerization at 0.1 to 10 uM after 24 hrs by Western blot analysis; assay type: functional, cell-based

Apoptosis regulator Bcl-2, sequence (P10415 whole entry): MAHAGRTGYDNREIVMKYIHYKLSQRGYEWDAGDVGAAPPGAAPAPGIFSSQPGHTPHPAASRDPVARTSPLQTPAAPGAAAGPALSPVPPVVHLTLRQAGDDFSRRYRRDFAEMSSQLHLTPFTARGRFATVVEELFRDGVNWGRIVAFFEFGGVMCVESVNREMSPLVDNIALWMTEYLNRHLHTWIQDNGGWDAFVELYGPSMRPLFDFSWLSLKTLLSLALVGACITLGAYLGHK

SMILES	pIC50 [1]	pIC50 (Bcl-2-like protein 1)	pIC50 (MV4-11 [5])	pIC50 (MV4-11 [7])	pIC50 [4]	pIC50 [6]	further results
CCCCN(CCCC)C(=O)c1nn(-c2ccc(C(=O)NS(=O)(=O)c3ccc4c(c3)CCN4C(=O)c3ccc(Cl)c(Cl)c3)cc2C(=O)N2CCc3ccccc3C2)c(C)c1Cl	6.55	6.26					
CCCCN(CCCC)C(=O)c1nn(-c2ccc(C(=O)NS(=O)(=O)c3ccc4ccccc4c3)cc2C(=O)N2COc3ccccc3C2)c(C)c1Cl		7.21					
CCCCN(CCCC)C(=O)c1nn(-c2ccc(C(=O)NS(=O)(=O)c3ccc4ccccc4c3)cc2C(=O)N2CCc3ccccc3C2C)c(C)c1Cl (stereo not given)	6.15	6.23					
CCCCN(CCCC)C(=O)c1nn(-c2ccc(C(=O)NS(=O)(=O)c3ccc4cccc(S(=O)(=O)CC)c4c3)cc2C(=O)N2CCc3ccccc3C2)c(C)c1Cl	6.74	6.82					
CCCCN(CCCC)C(=O)c1nn(-c2ccc(NS(=O)(=O)c3cc(Cl)cc(Cl)c3O)cc2C(=O)N2CCc3ccccc3C2)c(C)c1Cl	6.04	5.37					
O=C(c1ccc(CN(Cc2ccc(F)cc2)S(=O)(=O)c2cc(Cl)cc(Cl)c2O)cc1)N(Cc1ccc(F)cc1)Cc1cc(Cl)cc(Cl)c1	7.46	< 4.52					
CCCCN(CCCC)C(=O)c1nn(-c2ccc(C(=O)NS(=O)(=O)c3ccc4ccccc4c3)cc2C(=O)N2Cc3ccccc3C[C@H]2CO)c(C)c1Cl	7.46		< 5.00	< 5.00	< 5.00	< 5.00	Activity (SUD4 [8]): Active; Activity (SUD4 [9]): Active
CCCCN(CCCC)C(=O)c1nn(-c2ccc(C(=O)NS(=O)(=O)c3ccc4ccc(OCCN5CCOCC5)cc4c3)cc2C(=O)N2CCc3ccccc3C2)c(C)c1Cl	6.40	7.27					
CC1(C)CCC(c2ccc(Cl)cc2)=C(CN2CCN(c3ccc(C(=O)NS(=O)(=O)c4ccc(N[C@H](CCN5CCOCC5)CSc5ccccc5)c(S(=O)(=O)C(F)(F)F)c4)cc3)CC2)C1							Activity (SUD4 [8]): Active; Activity (SUD4 [9]): Active
CCCCN(CCCC)C(=O)c1nn(-c2ccc(C(=O)NS(=O)(=O)c3ccc4ccccc4c3)cc2C(=O)N2Cc3ccccc3C[C@H]2CN)c(C)c1Cl	8.05		5.07	< 5.00	< 5.00	< 5.00	Activity (SUD4 [8]): Active; Activity (SUD4 [9]): Active

Continued by rising pIC50 (Bcl-2-like protein 1), values first:

pIC50 [1]	pIC50 (Bcl-2-like protein 1)	pIC50 (MV4-11 [5])	pIC50 (MV4-11 [7])	SMILES	pIC50 [4]	pIC50 [6]	further results
7.43	7.33			CCCCN(CCCC)C(=O)c1nn(-c2ccc(C(=O)NS(=O)(=O)c3ccc4ccccc4c3)cc2C(=O)N2Cc3ccccc3C[C@H]2COCCN(C)C)c(C)c1Cl			
	7.33			CCCCN(CCCC)C(=O)c1nn(-c2ccc(C(=O)NS(=O)(=O)c3ccc4ccc(I)cc4c3)cc2C(=O)N2CCc3ccccc3C2)c(C)c1Cl			
7.80	7.36	< 5.00	< 5.00	CCCCN(CCCC)C(=O)c1nn(-c2ccc(C(=O)NS(=O)(=O)c3ccc4c(c3)CCN4Cc3ccc(Cl)c(Cl)c3)cc2C(=O)N2CCc3ccccc3C2)c(C)c1Cl	< 5.00	< 5.00	Activity (SUD4 [2]): Active; Activity (SUD4 [3]): Active
	7.39			CCCCN(CCCC)C(=O)c1nn(-c2ccc(C(=O)NS(=O)(=O)c3ccc4cccc(OCCN5CCOCC5)c4c3)cc2C(=O)N2CCc3ccccc3C2)c(C)c1Cl			
7.66	7.54	5.55	< 5.00	CCCCN(CCCC)C(=O)c1nn(-c2ccc(C(=O)NS(=O)(=O)c3ccc4ccccc4c3)cc2C(=O)N2Cc3ccccc3C[C@H]2COCCCOC)c(C)c1Cl	5.27	< 5.00	
7.59	7.59			CCCCN(CCCC)C(=O)c1nn(-c2ccc(C(=O)NS(=O)(=O)c3ccc4ccccc4c3)cc2C(=O)N2CNc3ccccc3C2)c(C)c1Cl			
7.49	7.62			CCCCN(CCCC)C(=O)c1nn(-c2ccc(C(=O)NS(=O)(=O)c3ccc4ccccc4c3)cc2C(=O)N2CCc3ccccc3C2)c(C)c1Cl			
7.49	7.64			CCCCN(CCCC)C(=O)c1nn(-c2ccc(C(=O)NS(=O)(=O)c3ccc4c(c3)CCN4)cc2C(=O)N2CCc3ccccc3C2)c(C)c1Cl			
6.85	7.66	5.32	< 5.00	CCCCN(CCCC)C(=O)c1nn(-c2ccc(C(=O)NS(=O)(=O)c3ccc4ccccc4c3)cc2C(=O)N2Cc3ccccc3C[C@H]2CN2CCN(C)CC2)c(C)c1Cl	5.01	< 5.00	
7.33	7.72	5.82	< 5.00	CCCCN(CCCC)C(=O)c1nn(-c2ccc(C(=O)NS(=O)(=O)c3ccc4ccccc4c3)cc2C(=O)N2Cc3ccccc3C[C@H]2CN2CCCC2)c(C)c1Cl	5.74	< 5.00	
7.11	7.77			CCCCN(CCCC)C(=O)c1nn(-c2ccc(C(=O)NS(=O)(=O)c3ccc4c(c3)CCN4CC)cc2C(=O)N2CCc3ccccc3C2)c(C)c1Cl			
7.82	7.77			CCCCN(CCCC)C(=O)c1nn(-c2ccc(C(=O)NS(=O)(=O)c3ccc4cccc(OCc5ccc(C(=O)O)cc5)c4c3)cc2C(=O)N2CCc3ccccc3C2)c(C)c1Cl			
7.85	7.80	5.52	< 5.00	CCCCN(CCCC)C(=O)c1nn(-c2ccc(C(=O)NS(=O)(=O)c3ccc4ccccc4c3)cc2C(=O)N2Cc3ccccc3C[C@H]2CN2CCOCC2)c(C)c1Cl	5.20	< 5.00	
